Residues, ends and D or L forms follow the SMILES beside them. *: point of attachment. pNA = O=[N+]([O-])c1ccc(N*)cc1; Bz = O=C(c1ccccc1)*
Legend:
urokinase (UK) = biological target: T1, urokinase (UK) (Homo sapiens, UniProt P00749); experiment: Substrate specificity test: reaction of substrates with urokinase; assay type: biochemical; conditions: for absorbance (O.D.), UK: So = 0.4 mM/l, 5 min reaction at 37° C.
T1 construct: purchased Mochida Pharmaceutical Co., Ltd., Japan
Description: (§1) The specificities of newly synthesized substrates were tested by reacting them with various enzymes as follows.
(§2) (1) Substrate solution: 2 mM/liter of H2 O
(§3) (2) Buffer solutions: The concentrations of each of tris(hydroxymethyl)aminomethane [hereinafter referred to as "Tris"], NaCl and CaCl2, as well as pH were specified as follows for the respective enzymes. […]
(§4) (4) Reaction Stopper (PNA): 10%-acetic acid
(§5) (5) Color forming agent (CHA): Pentacyanoamineferroate
(§6) (6) Method of determination:
(§7) 0.3 Milliter buffer solution and 0.1 ml of enzyme reagent were collected in a hard glass test tube of which surface being treated with silicone, or a plastic test tube and preheated in a thermostat at 37° C. for 5 minutes. Precisely 5 minutes after the reaction was started, 2.0 ml of reaction stopper solution or reactionterminating color forming reagent was added to terminate the enzyme reaction. The reaction mixture was allowed to stand at 37° C. for 10 minutes and then the adsorbance at 405 nm or 700 nm was measured.

thrombin (TH) = biological target: T2, thrombin (TH) (Bos taurus, UniProt P00735); experiment: Substrate specificity test: reaction of substrates with thrombin; assay type: biochemical, Bovine; conditions: for absorbance (O.D.), TH: So = 0.4 mM/l, 5 min reaction at 37° C.
T2 construct: proteolyze factor II (prothrombin) at two points of peptide chain to turn it into factor IIa (thrombin); purchased Mochida Pharmaceutical Co., Ltd., Japan
Description: as §1, §2, §3, §4, §5, §6, §7

kallikrein (KL) = biological target: T3, kallikrein (KL) (Sus scrofa, UniProt P00752); experiment: Substrate specificity test: reaction of substrates with kallikrein; assay type: biochemical, Swine; conditions: So = 0.4 mM/l, 5 min reaction at 37° C.
T3 construct: purchased Sigma Chemical Co., U.S.A
T3 sequence (P00752 8-246): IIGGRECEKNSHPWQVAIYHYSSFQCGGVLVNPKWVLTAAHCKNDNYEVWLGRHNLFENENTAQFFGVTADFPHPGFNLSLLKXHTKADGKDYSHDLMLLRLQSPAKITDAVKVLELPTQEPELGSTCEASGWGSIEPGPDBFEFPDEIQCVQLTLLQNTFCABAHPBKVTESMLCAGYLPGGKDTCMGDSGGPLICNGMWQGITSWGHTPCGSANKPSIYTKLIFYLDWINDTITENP
Description: as §1, §2, §3, §4, §5, §6, §7

plasmin (PL) = biological target: T4, plasmin (PL) (Homo sapiens, UniProt P00747); experiment: Substrate specificity test: reaction of substrates with plasmin; assay type: biochemical; conditions: for absorbance (O.D.), PL: So = 0.4 mM/l, 5 min reaction at 37° C.
T4 construct: Plasmin Human; purchased The Green Cross Corporation, Japan
T4 sequence (P00747 581-810 limits assumed): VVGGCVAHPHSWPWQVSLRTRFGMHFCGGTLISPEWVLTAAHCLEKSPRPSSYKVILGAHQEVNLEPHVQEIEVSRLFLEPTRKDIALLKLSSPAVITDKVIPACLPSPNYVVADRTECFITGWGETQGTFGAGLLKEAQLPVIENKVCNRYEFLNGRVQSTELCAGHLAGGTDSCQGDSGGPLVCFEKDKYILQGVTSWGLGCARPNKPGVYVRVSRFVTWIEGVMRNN
T4 sequence (P00747 97-580 partner limits assumed): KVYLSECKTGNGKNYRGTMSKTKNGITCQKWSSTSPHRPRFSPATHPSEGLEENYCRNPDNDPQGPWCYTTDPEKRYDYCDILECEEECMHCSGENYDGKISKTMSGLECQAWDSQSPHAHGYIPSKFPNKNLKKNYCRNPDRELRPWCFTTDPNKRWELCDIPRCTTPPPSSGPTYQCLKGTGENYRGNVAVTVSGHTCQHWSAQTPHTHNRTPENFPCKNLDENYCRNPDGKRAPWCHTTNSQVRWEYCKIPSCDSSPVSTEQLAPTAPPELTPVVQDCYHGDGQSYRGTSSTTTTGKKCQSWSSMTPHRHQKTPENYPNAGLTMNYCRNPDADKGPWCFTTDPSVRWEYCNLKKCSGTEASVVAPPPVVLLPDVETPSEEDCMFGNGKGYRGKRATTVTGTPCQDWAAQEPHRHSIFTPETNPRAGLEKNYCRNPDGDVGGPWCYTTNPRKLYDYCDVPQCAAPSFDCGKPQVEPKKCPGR
Description: as §1, §2, §3, §4, §5, §6, §7

factor Xa (FXa) = biological target: T5, factor Xa (FXa) (Homo sapiens, UniProt P00742); experiment: Substrate specificity test: reaction of substrates with FXa, absorbance of liberated chromogen; assay type: biochemical; conditions: for absorbance (O.D.), FXa: So = 0.4 mM/l, 5 min reaction at 37° C.
T5 construct: purchased Bohringer Mannheim, GmbH, West Germany
T5 sequence (P00742 235-488 limits assumed): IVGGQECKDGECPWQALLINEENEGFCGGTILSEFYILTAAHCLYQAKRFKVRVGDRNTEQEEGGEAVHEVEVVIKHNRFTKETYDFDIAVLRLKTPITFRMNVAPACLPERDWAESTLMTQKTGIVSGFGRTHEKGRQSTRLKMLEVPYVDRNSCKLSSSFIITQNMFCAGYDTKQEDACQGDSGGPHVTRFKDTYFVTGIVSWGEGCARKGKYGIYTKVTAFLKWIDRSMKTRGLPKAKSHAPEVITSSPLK
T5 sequence (P00742 41-179 partner limits assumed): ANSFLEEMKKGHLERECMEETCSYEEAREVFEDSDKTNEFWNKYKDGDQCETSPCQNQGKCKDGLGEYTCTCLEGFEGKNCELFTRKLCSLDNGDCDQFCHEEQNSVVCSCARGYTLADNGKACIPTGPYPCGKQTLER
Description: as §1, §2, §3, §4, §5, §6, §7

Solubility in water = assay type: physicochemical
[1] = 700 nm (CHA substrates, pentacyanoamineferroate)
[2] = PS-2000N given as 100, initial substrate concentration So = 0.4 mmol

absorbance (O.D.), UK (urokinase (UK); [1]) | absorbance (O.D.), TH (thrombin (TH); [1]) | absorbance (O.D.), KL (kallikrein (KL); [1]) | absorbance (O.D.), PL (plasmin (PL); [1]) | absorbance (O.D.), FXa (factor Xa (FXa); [1]) | Structure (SMILES) | other results
0.004 O.D. | 0.006 O.D. | 0.0 O.D. | 0.005 O.D. | 0.314 O.D. | N=C(N)NCCC[C@H](NC(=O)CNC(=O)[C@@H](CCCCN)NC(=O)OCc1ccccc1)C(=O)Nc1ccc(O)c(C(=O)O)c1 [PS-2001, ZD-LysGlyArgCHA] | 
0.003 O.D. | 0.009 O.D. | 0.0 O.D. | 0.004 O.D. | 0.426 O.D. | CC(=O)NCCCC[C@@H](NC(=O)OCc1ccccc1)C(=O)NCC(=O)N[C@@H](CCCNC(=N)N)C(=O)Nc1ccc(O)c(C(=O)O)c1 [PS-2002, ZD-Lys(Ac)GlyArgCHA] | 
0.0 O.D. | 0.006 O.D. | 0.0 O.D. | 0.0 O.D. | 0.292 O.D. | CN(CC(=O)N[C@@H](CCCNC(=N)N)C(=O)Nc1ccc(O)c(C(=O)O)c1)C(=O)[C@@H](CCCCN)NC(=O)OCc1ccccc1 [PS-2004, ZD-LysSarArgCHA] | 

The next lines start with the molecule.

Structure (SMILES) | absorbance (O.D.), UK (urokinase (UK); [1]) | absorbance (O.D.), TH (thrombin (TH); [1]) | absorbance (O.D.), KL (kallikrein (KL); [1]) | absorbance (O.D.), PL (plasmin (PL); [1]) | absorbance (O.D.), FXa (factor Xa (FXa); [1]) | other results
CC[C@H](C)[C@H](NC(=O)c1ccccc1)C(=O)N[C@@H](CCC(=O)O)C(=O)NCC(=O)N[C@@H](CCCN=C(N)N)C(=O)Nc1ccc([N+](=O)[O-])cc1 [S-2222, Bz-Ile-Glu-Gly-Arg-PNA, reference compound] (Bz-IEGR-pNA) |  |  |  |  |  | water solubility (Solubility in water): about 6 mmol/1
CC[C@H](C)[C@H](NC(=O)c1ccccc1)C(=O)N[C@@H](CCC(=O)O)C(=O)NCC(=O)N[C@@H](CCCNC(=N)N)C(=O)Nc1ccc([N+](=O)[O-])cc1 [S-2222, Bz-Ile-Glu-Gly-Arg-PNA, reference compound] (Bz-IEGR-pNA) |  |  |  |  |  | absorbance (O.D.), UK (urokinase (UK); 405 nm (PNA substrates)): 0.035 O.D.; Relative reactivity to enzymes, UK (urokinase (UK); [2]): 40%; absorbance (O.D.), TH (thrombin (TH); 405 nm (PNA substrates)): 0.018 O.D.; Relative reactivity to enzymes, TH (thrombin (TH); [2]): 31%; absorbance (O.D.), KL (kallikrein (KL); 405 nm (PNA substrates)): 0.013 O.D.; absorbance (O.D.), PL (plasmin (PL); 405 nm (PNA substrates)): 0.011 O.D.; Relative reactivity to enzymes, PL (plasmin (PL); [2]): 16%; absorbance (O.D.), FXa (factor Xa (FXa); 405 nm (PNA substrates)): 0.669 O.D.; Relative reactivity to enzymes, Fxa (factor Xa (FXa); [2]): 57%
